Consider 2 compounds from ChEMBL document CHEMBL1142111, “Induced production of emericellamides A and B from the marine-derived fungus Emericella sp. in competing co-culture” (J Nat Prod, 2007).

pIC50: −log10 of the molar value. ≈ marks a conversion by molar mass, not a printed value.

The test system of experiment [1] is HCT-116. Briefly: Cytotoxicity against human HCT116 cells. The format is cell-based.
Experiment [2] relates to Staphylococcus aureus. The experiment is described as follows: Antimicrobial activity against methicillin-resistant Staphylococcus aureus. The format is functional.

What is called pIC50 is the negative decadic logarithm of the IC50, by convention in mol/L. One may read the MIC as the lowest concentration that inhibits growth of the organism.

The compound `CCCCCC[C@H](C)[C@H]1OC(=O)[C@H](C)NC(=O)[C@H](C)NC(=O)[C@H](CC(C)C)NC(=O)[C@H](C(C)C)NC(=O)CNC(=O)[C@@H]1C` [EMERICELLAMIDE A] had a pIC50 in experiment [1] of 4.64. In addition, the MIC in experiment [2] was 3.8 µM (≈ 2.32 µg/mL).
The like results for `CCCCCC[C@H](C)C[C@H](C)[C@H]1OC(=O)[C@H](C)NC(=O)[C@H](C)NC(=O)[C@H](CC(C)C)NC(=O)[C@H](C(C)C)NC(=O)CNC(=O)[C@@H]1C` [EMERICELLAMIDE B] were, in that order, 4.40 and 6 µM (≈ 3.91 µg/mL).
